Among the test systems are SK-MEL-2 melanoma; MOLT-4 leukemia; SF-268 CNS; HCC-2998 colon; NCI-H23 lung; RPMI-8226 leukemia; OVCAR-3 ovarian; UACC-62 melanoma; MDA-MB-435; HOP-62 NSCLC.
Assay in all cases: growth of human tumour cells (NCI), 48 h

This passage reports TGI results from PubChem BioAssay (NCI).

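1) Cells in 96-well plates. 2) Compound, 48 h, 5 concentrations. 3) Linear interpolation between surrounding doses. 4) Unreached endpoint = highest concentration. At the TGI there is no net growth.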 A value given as a limit tells only on which side of the number the result lay.

On to `O=C1CC(=O)NC(=NNS(=O)(=O)c2ccc(Cl)cc2)N1`, for which the TGI in the assay on SK-MEL-2 melanoma, in the assay with MOLT-4 leukemia, in the assay on SF-268 CNS, with HCC-2998 colon, in the assay on NCI-H23 lung and in the assay with RPMI-8226 leukemia was over 100 µM each time. Moreover, the TGI in the assay with OVCAR-3 ovarian, in the assay with UACC-62 melanoma, in the assay with MDA-MB-435 and in the assay with HOP-62 NSCLC was over 100 µM in each case.
Take `CC1C(C#N)(C#N)C(C#N)=C(N)C1(Cl)[N+](=O)[O-]` (stereo not given): the TGI stood at 58 µM in the assay with SK-MEL-2 melanoma; 11.6 µM in the assay on MOLT-4 leukemia; 28.7 µM in the assay on SF-268 CNS; 31.8 µM in the assay on HCC-2998 colon; 35.3 µM with NCI-H23 lung; 39.8 µM in the assay with RPMI-8226 leukemia. Moreover, the TGI is 22 µM in the assay with OVCAR-3 ovarian, 24 µM in the assay on UACC-62 melanoma, 31.6 µM in the assay on MDA-MB-435 and 9.72 µM in the assay with HOP-62 NSCLC.
Turning to `Fc1ccc(C(OCCN2CC3CCC(C2)N3CCCc2ccccc2)c2ccc(F)cc2)cc1`, the TGI in the assay on SK-MEL-2 melanoma amounted to 12 µM; with MOLT-4 leukemia, 9.01 µM; with SF-268 CNS it was 15.1 µM; in the assay with HCC-2998 colon, 8.06 µM; in the assay with NCI-H23 lung, 15.3 µM; in the assay on RPMI-8226 leukemia, 4.8 µM. In addition, the TGI is 21.8 µM in the assay with OVCAR-3 ovarian, 21.3 µM in the assay on UACC-62 melanoma, 4.68 µM in the assay with MDA-MB-435 and 21.3 µM with HOP-62 NSCLC.
Take `COC(=O)CCC(NC(=O)OC(C)(C)C)C(=O)NC(Cc1ccc(NC(=O)CCCC(C)=O)cc1)C(=O)NC(CCC(=O)OC)C(=O)OC` (stereo not given): the TGI in the assay with SK-MEL-2 melanoma, in the assay with MOLT-4 leukemia, in the assay on SF-268 CNS, with HCC-2998 colon, in the assay on NCI-H23 lung and with RPMI-8226 leukemia was over 100 µM in each case. For the same compound, the TGI with OVCAR-3 ovarian, in the assay with UACC-62 melanoma, with MDA-MB-435 and in the assay on HOP-62 NSCLC was over 100 µM in each case.
Turning to `CCN1CN(c2ccccc2)C2(CCN(CC(CC3OCCO3)c3ccc(F)cc3)CC2)C1=O` (stereo not given), the TGI in the assay on SK-MEL-2 melanoma is 46.8 µM; in the assay with MOLT-4 leukemia, over 67 µM; in the assay with SF-268 CNS it was 38.2 µM; in the assay on HCC-2998 colon, 46.1 µM; in the assay with NCI-H23 lung, over 57.3 µM; in the assay with RPMI-8226 leukemia, 60.2 µM. Moreover, the TGI in the assay with OVCAR-3 ovarian worked out at 50.7 µM; in the assay on UACC-62 melanoma, 47.1 µM; in the assay with MDA-MB-435, 38.2 µM; in the assay on HOP-62 NSCLC, 12.1 µM.
On to `CC[C@@]1(O)C(=O)OCc2c1cc1n(c2=O)Cc2c-1nc1ccccc1c2/C=N/NC(=O)c1ccc(N)cc1`, for which the TGI is over 100 µM in the assay with SK-MEL-2 melanoma; 0.287 µM in the assay on MOLT-4 leukemia; over 100 µM in the assay with SF-268 CNS; over 69.9 µM with HCC-2998 colon; 1.48 µM in the assay on NCI-H23 lung; over 100 µM in the assay with RPMI-8226 leukemia. Besides, the TGI in the assay on OVCAR-3 ovarian was over 100 µM; with UACC-62 melanoma, 1.94 µM; in the assay on MDA-MB-435, over 100 µM; in the assay on HOP-62 NSCLC, 1.61 µM.
With `CC(Cl)CC(=O)OCC1CCCN2CCCCC12` (stereo not given), the TGI in the assay on SK-MEL-2 melanoma, in the assay on MOLT-4 leukemia, in the assay with SF-268 CNS, in the assay on HCC-2998 colon, in the assay with NCI-H23 lung and in the assay on RPMI-8226 leukemia was over 100 µM in each case. Besides, the TGI in the assay on OVCAR-3 ovarian, in the assay on UACC-62 melanoma, in the assay with MDA-MB-435 and in the assay on HOP-62 NSCLC was over 100 µM each time.
`C=C1C[C@H](O)[C@H](Br)C(C)(C)C12CCC(C)(Cl)C(Br)C2` (stereo not given in full): the TGI in the assay with SK-MEL-2 melanoma came to 6.55 µM; with MOLT-4 leukemia, 75 µM; in the assay on SF-268 CNS, 20.8 µM; in the assay with HCC-2998 colon it was 15.5 µM; in the assay with NCI-H23 lung, 7.98 µM; in the assay on RPMI-8226 leukemia, 3.76 µM. Further, the TGI was found to be 15.7 µM in the assay with OVCAR-3 ovarian, 15.6 µM with UACC-62 melanoma, 11.7 µM in the assay on MDA-MB-435 and 12.2 µM in the assay with HOP-62 NSCLC.
For the compound `CCOc1ccc(N/C(=C(/C(Cl)=C(/Cl)NC(C)(C)C)[N+](=O)[O-])n2nnc3ccccc32)cc1`, the TGI with SK-MEL-2 melanoma is over 100 µM; with MOLT-4 leukemia, over 100 µM; with SF-268 CNS, 42.7 µM; with HCC-2998 colon it was over 100 µM; in the assay on NCI-H23 lung, 55.6 µM; in the assay on RPMI-8226 leukemia, over 100 µM. Besides, the TGI is 72.2 µM in the assay with OVCAR-3 ovarian, 65.3 µM in the assay on UACC-62 melanoma, 33.6 µM in the assay with MDA-MB-435 and over 100 µM in the assay on HOP-62 NSCLC.
For the compound `CC1(C)N=C(C2CCCN2C(=O)OCc2ccccc2)OC1=O` (stereo not given), the TGI in the assay with SK-MEL-2 melanoma, in the assay on MOLT-4 leukemia, with SF-268 CNS, in the assay with HCC-2998 colon, in the assay on NCI-H23 lung and in the assay on RPMI-8226 leukemia was over 100 µM in each case. Besides, the TGI in the assay on OVCAR-3 ovarian, with UACC-62 melanoma, in the assay with MDA-MB-435 and in the assay with HOP-62 NSCLC was over 100 µM each time.
`CC(C)N(C(C)C)S(=O)(=O)C[C@]12CC[C@H](CC13OCC(CS(=O)(=O)c1ccccc1)O3)C2(C)C` (stereo not given in full): the TGI with SK-MEL-2 melanoma was over 100 µM; in the assay on MOLT-4 leukemia, 45.7 µM; with SF-268 CNS it was over 100 µM; in the assay on HCC-2998 colon it was over 100 µM; in the assay on NCI-H23 lung, over 100 µM; in the assay with RPMI-8226 leukemia it was over 100 µM. Besides, the TGI in the assay on OVCAR-3 ovarian was over 70.8 µM; in the assay with UACC-62 melanoma, over 100 µM; with MDA-MB-435, over 100 µM; in the assay with HOP-62 NSCLC, over 100 µM.
In the case of `CCOC(=O)c1c(NC(=S)Nc2ccccc2)sc2c1CCOC2`, the TGI in the assay with SK-MEL-2 melanoma, with MOLT-4 leukemia, in the assay with SF-268 CNS, with HCC-2998 colon, in the assay with NCI-H23 lung and in the assay with RPMI-8226 leukemia was over 100 µM in each case. Further, the TGI in the assay with OVCAR-3 ovarian, with UACC-62 melanoma, in the assay with MDA-MB-435 and in the assay on HOP-62 NSCLC was over 100 µM throughout.
